Legend:
[1] = Metabolic stability in human liver microsomes; type: in vitro ADME; conditions: 5 µM, NADPH, 37 °C
Experimental: A standard metabolic stability assay was performed in the presence of mouse or human liver microsomes. YC-001 (5 µM) was incubated with the microsomes (0.125 mg mL^−1) resuspended in 0.2 mL of PBS buffer, pH 7.4 composed of 10 mM Na2HPO4, 1.8 mM KH2PO4, 137 mM NaCl, and 2.7 mM KCl. The enzymatic reaction to produce oxidized metabolites was initiated by addition of NADPH (1 mM). Samples were incubated at 37 °C for up to 240 min. Incubation without the cofactor was conducted in parallel to assess NADPH-independent clearance. The reactions were stopped with 0.2 mL of methanol followed by 0.3 mL chloroform. Residual YC-001 was extracted by vigorous shaking. To facilitate phase separation, the samples were spun down for 2 min, 15,000×g. The chloroform fraction was collected, dried down, and the extracted organic compounds were redissolved in 0.2 mL of methanol. To quantify YC-001, the samples were injected onto an Eclipse XDB-C18 column (4.6 × 150 mm, 5 µm) (Agilent Technologies) equilibrated with solvent composed of 30% acetonitrile in water (v/v), and 0.1% formic acid. YC-001 was eluted in a gradient of acetonitrile in water (30–100%) developed within 15 min at a flow rate of 1 mL min^−1, detected at 350 nm, and quantified by correlating peak areas with known quantities of an original synthetic standard. […]

human rod opsin C110Y = target: T1, human rod opsin C110Y (Homo sapiens, UniProt P08100, C110Y); test: Cell-surface immunostain of rod opsin mutant in transfected NIH3T3 cells; type: cell-based; conditions: 10 µM, 24 h
T1 construct: expressed in transfected cells; host or cells: NIH3T3 cells, transient transfection with pcDNA3.1-hOpsin mutant
Experimental: (§1) Human rhodopsin cDNA was placed into the pcDNA3.1(+) vector (pcDNA3.1-hOpsin). Site-directed mutagenesis was performed following the QuickChange II site-directed mutagenesis kit (Agilent Technologies Inc.). Primers for the following mutations were as follows: T4R-forward, 5′-[…]-3′; T4R-reverse, 5′-[…]-3′; P53R-forward, 5′-[…]-3′; P53R-reverse, 5′-[…]-3′; G106R-forward, 5′-[…]-3′; G106R-reverse, 5′-[…]-3′; C110Y-forward, 5′-[…]-3′; C110Y-reverse, 5′-[…]-3′; D190N-forward, 5′-[…]-3′; D190N-reverse, 5′-[…]-3′; P267L-forward, 5′-[…]-3′; P267L-reverse, 5′-[…]-3′. DNA vectors with rhodopsin mutations were confirmed by Sanger sequencing. After NIH3T3 cells were transfected with pcDNA3.1-hOpsin or its mutants for 24 h, these cells were resuspended and seeded into a 96-well plate with an optic bottom (Corning). […] Each condition was repeated in three wells. The treated plate was covered in tin foil and incubated at 37 °C with 5% CO2 for 24 h. Cells were then immunostained with 50 µg mL^−1 Alexa488-conjugated B6-30 anti-rhodopsin antibody. Cells were not exposed to detergents so that cell membranes were kept intact and only rhodopsin on the cell surface was immunostained. Alexa 488 fluorescence was imaged by the ImageExpress (Molecular Devices) high-content imager with a ×20 objective.

human rod opsin D190N = target: T2, human rod opsin D190N (Homo sapiens, UniProt P08100, D190N); test: as above; type: cell-based; conditions: 10 µM, 24 h
T2 construct: expressed in transfected cells; host or cells: NIH3T3 cells, transient transfection with pcDNA3.1-hOpsin mutant
Experimental: as §1

human rod opsin G106R = target: T3, human rod opsin G106R (Homo sapiens, UniProt P08100, G106R); test: as above; type: cell-based; conditions: 10 µM, 24 h
T3 construct: expressed in transfected cells; host or cells: NIH3T3 cells, transient transfection with pcDNA3.1-hOpsin mutant
Experimental: as §1

human rod opsin P267L = target: T4, human rod opsin P267L (Homo sapiens, UniProt P08100, P267L); test: as above; type: cell-based; conditions: 10 µM, 24 h
T4 construct: expressed in transfected cells; host or cells: NIH3T3 cells, transient transfection with pcDNA3.1-hOpsin mutant
Experimental: as §1

human rod opsin P53R = target: T5, human rod opsin P53R (Homo sapiens, UniProt P08100, P53R); test: as above; type: cell-based; conditions: 10 µM, 24 h
T5 construct: expressed in transfected cells; host or cells: NIH3T3 cells, transient transfection with pcDNA3.1-hOpsin mutant
Experimental: as §1

SMILES: O=C1OCC(c2ccc(Cl)s2)=C1c1cccs1 [YC-001]
- initial clearance in liver microsomes [1]: even higher initial clearance compared to the fast clearance drug, verapamil
- cell-surface staining of C110Y rod opsin (human rod opsin C110Y): not P53R or C110Y mutants increased significantly
- cell-surface staining of D190N rod opsin (human rod opsin D190N): increased significantly
- cell-surface staining of G106R rod opsin (human rod opsin G106R): increased significantly
- cell-surface staining of P267L rod opsin (human rod opsin P267L): increased significantly
- cell-surface staining of P53R rod opsin (human rod opsin P53R): not P53R or C110Y mutants increased significantly
